Results on five compounds are retold here after patent publication US20260166159A1, “KRAS G12D DEGRADATION AGENT, AND PREPARATION METHOD AND USE THEREFOR” (LEADINGTAC PHARMACEUTICAL (SHAOXING) CO., LTD., priority 2022, published 2026).

Bounds are passed on as bounds.

One test concerns phosphorylated ERK. The test can be described thus: KRAS G12D-mediated phosphorylated ERK inhibition assay (AlphaLISA), A427. It is filed as cell-based. Conditions: Homo sapiens, A-427; A427 cells; class symbols; read-out: pERK (A427) IC50. As to the method: The relative amounts of phosphorylated ERK and total ERK in the samples were separately determined according to the test methods provided in the instructions of the AlphaLISA SureFire Ultra p-ERK 1/2 (Thr202/Tyr204) kit (PerkinElmer) and the AlphaLISA SureFire Ultra TotalERK 1/2 kit (PerkinElmer).
The experimental procedures for the assay of the phosphorylated ERK and total ERK were as follows: 10 μL of each sample was added to a 384-well plate (Greiner), and 5 μL of the prepared Acceptor Beads (PerkinElmer) mixed solution (containing 50× Acceptor Beads 615, Activation Buffer, and equal volumes of Reaction Buffer 1 and Reaction Buffer 2) was added to each well; and the plate was incubated at room temperature for 2 h. Then 5 μL of 1× Donor Beads (PerkinElmer) diluted with Dilution Buffer was added to each well, and the plate was incubated at room temperature overnight. After the incubation was completed, AlphaLISA signal values for the phosphorylated ERK and total ERK were separately measured on an EnVision microplate reader (PerkinElmer) in the AlphaScreen standard mode. The following formula was adopted: phosphorylated ERK correction value=phosphorylated ERK AlphaLISA signal value/total ERK AlphaLISA signal value. The relative ratio of the phosphorylated ERK for each sample was calculated. The percentage inhibition rates of the compounds on the phosphorylated ERK at each concentration were calculated by comparing the relative value of the phosphorylated ERK with that of the DMSO control well. Then non-linear curve fittings for logarithmic concentration-inhibition rate were performed by the GraphPad Prism 8 analysis software, and the IC50 values of the compounds on the inhibition of the phosphorylated ERK were obtained (Table 2).
A general note: In Alpha technology, singlet oxygen from a donor bead excites a nearby acceptor bead.

The target in the next test is T1, KRAS-G12D (Homo sapiens, UniProt P01116, G12D).
T1 construct: endogenous in cells; host or cells: A-427 (ATCC), AGS, AsPc-1, Panc 04.03
T1 sequence (P01116 1-188 isoform P01116-2 G12D): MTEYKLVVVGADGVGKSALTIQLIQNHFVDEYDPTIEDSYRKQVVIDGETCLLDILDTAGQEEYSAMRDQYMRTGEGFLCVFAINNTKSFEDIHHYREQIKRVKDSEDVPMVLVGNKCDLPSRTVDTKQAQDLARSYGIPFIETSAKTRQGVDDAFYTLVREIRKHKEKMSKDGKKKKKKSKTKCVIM
Description: KRAS-G12D degradation assay (Western Blot), A-427 cells. The note with it: A427 cells, 24 h, class symbols; for Dmax: A-427. It is filed as cell-based. The essentials: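 Each KRAS G12D mutant line (A-427, AGS, AsPc-1, Panc 04.03) was seeded at 5×10^5 cells/well and treated 24 h at 37 °C with 0.03–3000 nM compound (final DMSO 0.25%). KRAS in lysates was measured by Western blot, normalized to β-actin and compared with controls, giving DC50 and Dmax from curve fits.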
(In general: Immunoblotting shows a protein as a band on a membrane.)

Usually IC50 stands for the midpoint of a concentration-inhibition curve. The DC50 is the midpoint of the concentration-degradation curve. Low values mean a more potent degrader, high ones a less potent degrader. Usually Dmax stands for the greatest extent of degradation seen. For `C#Cc1c(F)ccc2cc(O)cc(-c3ncc4c(N5CC6CCC(C5)N6)nc(OC[C@@H]5CCCN5CCC5CCC6(CC5)CCN(C(=O)c5ccc(Cl)c(N7CCC(=O)NC7=O)c5)CC6)nc4c3F)c12` [Example 32, 1-(5-(9-(2-((S)-2-(((4-(3,8-diazabicyclo[3.2.1]octan-3-yl)-7-(8-ethynyl-7-fluoro-3-hydroxynaphthalen-1-yl)-8-fluoropyrido[4,3-d]pyrimidin-2-yl)oxy)methyl)pyrrolidin-1-yl)ethyl)-3-azaspiro[5.5]undecane-3-carbonyl)-2-chlorophenyl)dihydropyrimidine-2,4(1H,3H)-dione], in the test on phosphorylated ERK, the IC50 was 1000 to 10000 nM. At KRAS-G12D, this compound returned a 50% degradation concentration (DC50) of 1000 to 10000 nM and a Dmax of less than 30%.
In the case of `CCc1cccc2cc(O)cc(-c3ncc4c(N5CC6CCC(C5)N6)nc(OCC5(CN6CCN(CC7CCC8(CC7)CCN(C(=O)c7ccc(OC)c(N9CCC(=O)NC9=O)c7)CC8)CC6)CC5)nc4c3F)c12` [Example 20, 1-(5-(9-((4-((1-(((4-(3,8-diazabicyclo[3.2.1]octan-3-yl)-7-(8-ethyl-3-hydroxynaphthalen-1-yl)-8-fluoropyrido[4,3-d]pyrimidin-2-yl)oxy)methyl)cyclopropyl)methyl)piperazin-1-yl)methyl)-3-azaspiro[5.5]undecane-3-carbonyl)-2-methoxyphenyl)dihydropyrimidine-2,4(1H,3H)-dione], the concentration for half-maximal inhibition (IC50) with phosphorylated ERK is no more than 50 nM. At KRAS-G12D, this compound came in with a 50% degradation concentration (DC50) of no more than 50 nM and a Dmax of 80 to 100%.
In the case of `C#Cc1c(F)ccc2cc(O)cc(-c3ncc4c(N5CC6CCC(C5)N6)nc(OCC5(CN6CCN(CC7CCC8(CC7)CCN(C(=O)c7ccc(Cl)c(N9CCC(=O)N(C)C9=O)c7)CC8)CC6)CC5)nc4c3F)c12` [Example 17, 1-(5-(9-((4-((1-(((4-(3,8-diazabicyclo[3.2.1]octan-3-yl)-7-(8-ethynyl-7-fluoro-3-hydroxynaphthalen-1-yl)-8-fluoropyrido[4,3-d]pyrimidin-2-yl)oxy)methyl)cyclopropyl)methyl)piperazin-1-yl)methyl)-3-azaspiro[5.5]undecane-3-carbonyl)-2-chlorophenyl)-3-methyldihydropyrimidine-2,4(1H,3H)-dione], the IC50 in the test with phosphorylated ERK was no more than 50 nM. On KRAS-G12D, this compound registered a DC50 of 1000 to 10000 nM and a Dmax of less than 30%.
As for `C#Cc1c(F)ccc2cc(O)cc(-c3ncc4c(N5CC6CCC(C5)N6)nc(OCC5(CN6CCN(CCCCC7CCN(C(=O)c8ccc(Cl)c(N9CCC(=O)NC9=O)c8)CC7)CC6)CC5)nc4c3F)c12` [Example 5, 1-(5-(4-(4-(4-((1-(((4-(3,8-diazabicyclo[3.2.1]octan-3-yl)-7-(8-ethynyl-7-fluoro-3-hydroxynaphthalen-1-yl)-8-fluoropyrido[4,3-d]pyrimidin-2-yl)oxy)methyl)cyclopropyl)methyl)piperazin-1-yl)butyl)piperidine-1-carbonyl)-2-chlorophenyl)dihydropyrimidine-2,4(1H,3H)-dione], the IC50 in the test with phosphorylated ERK is no more than 50 nM. Besides, at KRAS-G12D, the 50% degradation concentration (DC50) was no more than 50 nM and the maximal degradation (Dmax) was 80 to 100%.
With `C#Cc1c(F)ccc2cc(O)cc(-c3ncc4c(N5CC6CCC(C5)N6)nc(OCC5(CN6CCC(COCC7CCN(C(=O)c8ccc(Cl)c(N9CCC(=O)NC9=O)c8)CC7)CC6)CC5)nc4c3F)c12` [Example 13, 1-(5-(4-(((1-((1-(((4-(3,8-diazabicyclo[3.2.1]octan-3-yl)-7-(8-ethynyl-7-fluoro-3-hydroxynaphthalen-1-yl)-8-fluoropyrido[4,3-d]pyrimidin-2-yl)oxy)methyl)cyclopropyl)methyl)piperidin-4-yl)methoxy)methyl)piperidine-1-carbonyl)-2-chlorophenyl)dihydropyrimidine-2,4(1H,3H)-dione], the 50% inhibitory concentration (IC50) with phosphorylated ERK is no more than 50 nM. Moreover, at KRAS-G12D, the DC50 lay within 50 to 100 nM and the Dmax is 50 to 80%.
